The target of one data set is Ba/F3 KRAS-G12V cells (Homo sapiens, UniProt P01116, G12V, cells depend on it). As to the kind of experiment: Proliferation inhibitory activity on Ba/F3 KRAS-G12V stably transfected cell line (CellTiter-Glo, 72 hours). The class given is cell-based, mouse. The settings on record: read-out: Ba/F3 KRAS-G12V IC50. The source says:
(§1) Test Example 1: Proliferation Inhibitory Activity on Ba/F3 KRAS-G12D, Ba/F3 KRAS-G12V Stably Transfected Cell Lines and AGS Tumor Cell Lines Containing KRAS G12D Mutations
(§2) To determine the proliferation inhibitory activity of the compounds in vitro on mouse pro-B cells Ba/F3 (Ba/F3 KRAS-G12D and Ba/F3 KRAS-G12V cells stably expressing KRAS G12D/V mutant proteins) and gastric cancer AGS cells expressing KRAS G12D mutant protein.
(§3) Cell sources. Ba/F3 KRAS-G12D and Ba/F3 KRAS-G12V were purchased from Kyinno Biotech (Beijing) Co., Ltd, Cat. No.: KC-1259 and KC-1261, respectively; AGS was purchased from Shanghai Bioleaf Biotech Co., Ltd.
(§4) Cells in the logarithmic growth phase were seeded in a 96-well plate (8000, 8000, 4000 cells/well, 90 μL/well for Ba/F3 KRAS-G12D, Ba/F3 KRAS-G12V, and AGS cells respectively), incubated at 37° C. for 1 day with 5% CO2, and then a gradient dilution of the test compound was added thereto (compounds 1 to 28 and comparative compounds). The details were as follows, the compound stock solution (10 mM) previously dissolved in DMSO was diluted to 10 gradient concentrations at a fold ratio (4 fold) and diluted to 10 fold of the target concentration in another 96-well plate with culture medium, and then 10 μL/well of the compound solution was added to the 96-well plate seeded with cells to reach the target concentration (10000, 2500, 625, 156, 39, 10, 2.5, 0.6, 0.15, 0.04 nM). Each concentration was provided with 3 duplicate wells and a blank control. After continued incubation at 37° C. and 5% CO2 for 72 hours, 50 μL of CellTiter-Glo*2.0 reagent (luciferase ATP bioluminescence detection reagent, purchased from Promega, Cat. No.: G9243) was added to each well, shaken for 2 minutes, and incubated at room temperature for 8 minutes, and then fluorescence luminescence intensity was detected (light collection time was 100 ms). The inhibitory rate of compounds with various concentrations on cell proliferation was calculated. Cell proliferation inhibition rate (%)=[(luminous intensitycontrol group containing cell culture medium for 72 hour−luminous intensitycompound group for 72 hour)/(luminous intensitycontrol group containing cell culture medium for 72 hours−luminous intensitycontrol group without cell culture medium for 72 hour)]×100%. GraphPad Prism 8.3 software was used to analyze the data, and nonlinear S-curve regression was used to fit the data to obtain a dose-effect curve, from which the IC50 value was calculated.
Background: Cellular ATP, detected with luciferase, serves as a proxy for viable cell number.

The nature of data set [1]: Body weight change of mice in HPAC xenograft model. The settings on record: 30 mg/kg intraperitoneally twice a day for 10 days, vs D0 weight, HPAC xenograft in BALB/c nude mice. The data set is classed as in vivo. How it is done: Experimental scheme: BALB/c nude mice were subcutaneously inoculated with HPAC cells to establish a cell line xenograft tumor model. The test was divided into a 30 mg/kg group of compound 21, a 30 mg/kg group of comparative compound, and a vehicle group, with 5 mice in each group. The mice were administered intraperitoneally in an administration volume of 10 μL/g. The vehicle group was given an equal amount of vehicle (sulfobutyl-β-cyclodextrin sodium salt dissolved in 50 mM citric acid buffer, the mass-to-volume concentration of sulfobutyl-β-cyclodextrin sodium salt was 10%, and the pH value of the vehicle was 5.0), administered twice a day for 10 days. During the entire experiment, the body weight and tumor size of the mice were measured on days 4, 7, and 10 to observe whether toxic reactions occurred. Efficacy was evaluated based on relative tumor proliferation rate. Other compounds of the present disclosure (compounds 1 to 20 and 22 to 28) were tested with reference to compound 21. Formula for calculating weight change: weight change (%)=(weight/D0 weight−1)×100%.

The next data set concerns AGS cells. Kind of data set: Proliferation inhibitory activity on AGS tumor cell line containing KRAS G12D mutation (CellTiter-Glo, 72 hours). The data set is classed as cell-based. To be noted: Homo sapiens.
Source text: as §1, §2, §3, §4

The subject of the next data set is HPAC cells. As to the kind of experiment: In vivo efficacy in HPAC cell line xenograft tumor model. To be noted: 30 mg/kg intraperitoneally twice a day for 10 days, day 10 vs day 0, HPAC xenograft in BALB/c nude mice. Here is the method:
Test Example 2: In Vivo Efficacy of Test Compounds in HPAC Model
This experiment is used to evaluate the in vivo efficacy of compounds in the HPAC model.
Source of experimental animals: Beijing Vital River Laboratory Animal Technology Co., Ltd., certificate number: 20170011007990.
Animal modeling and random grouping: HPAC cells were cultured and expanded to 30 T175 cm^2 culture flasks. Cells were collected, resuspended in serum-free culture medium DMEM for counting, and added with matrix glue at a ratio of 1:1, and inoculated into the right anterior subcutaneous region of BALB/c Nude mice at 5×10^6 cells/0.1 mL. When the average tumor volume reached approximately 281 mm^3, mice were randomly divided into various experimental groups according to tumor size, with 5 mice per group. The day of grouping was defined as day 0, that is, DO.
Experimental scheme: BALB/c nude mice were subcutaneously inoculated with HPAC cells to establish a cell line xenograft tumor model. The test was divided into a 30 mg/kg group of compound 21, a 30 mg/kg group of comparative compound, and a vehicle group, with 5 mice in each group. […] During the entire experiment, the body weight and tumor size of the mice were measured on days 4, 7, and 10 to observe whether toxic reactions occurred. Efficacy was evaluated based on relative tumor proliferation rate. […]

In another data set the target is Ba/F3 KRAS-G12D cells (Homo sapiens, UniProt P01116, G12D, cells depend on it). Kind of data set: Proliferation inhibitory activity on Ba/F3 KRAS-G12D stably transfected cell line (CellTiter-Glo, 72 hours). The data set is classed as cell-based, mouse. The settings on record: read-out: Ba/F3 KRAS-G12D IC50.
Source text: as §1, §2, §3, §4

By IC50 is commonly meant the point on the concentration scale where inhibition reaches its midpoint. The low end stands for greater potency, the high end for weaker potency.

SMILES strings stand for the structures.

Ba/F3 KRAS-G12V cells, sequence (P01116 whole entry G12V): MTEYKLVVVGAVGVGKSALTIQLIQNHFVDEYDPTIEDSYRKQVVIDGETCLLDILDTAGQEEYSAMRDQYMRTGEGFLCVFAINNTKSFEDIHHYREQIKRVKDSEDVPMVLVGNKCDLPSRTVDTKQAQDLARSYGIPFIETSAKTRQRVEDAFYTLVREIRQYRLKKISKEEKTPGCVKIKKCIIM
Ba/F3 KRAS-G12D cells, sequence (P01116 whole entry G12D): as the sequence (P01116 whole entry G12V) above, with V12D counted along it

As to `C#Cc1c(F)ccc2cc(O)cc(-c3nc(Cl)c4c(N5C[C@H]6CC[C@@H](C5)N6)nc(OC[C@@]56CCCN5C[C@H](F)C6)nc4c3F)c12` [Compound 21, 4-(4-((1R,5S)-3,8-Diazabicyclo[3.2.1]octan-3-yl)-5-chloro-8-fluoro-2-(((2R,7aS)-2-fluorohexahydro-1H-pyrrolizin-7a-yl)methoxy)pyrido[4,3-d]pyrimidin-7-yl)-5-ethynyl-6-fluoronaphthalen-2-ol], the GI50 at Ba/F3 KRAS-G12V cells was 5000 to 10000 nM; at Ba/F3 KRAS-G12D cells, 1 nM. Further, the “Weight change (%)” value in data set [1] was −7.27%. Moreover, in the data set with AGS cells, the half-inhibitory concentration (IC50) worked out at 9 nM. Moreover, in the data set with HPAC cells, the “T/C % (relative tumor proliferation rate)” value is reported as −64.96%.

For the origin of these results see patent US20240368192A1, “Nitrogen-Containing Heterocyclic Compound, and Preparation Method Therefor, Intermediate Thereof, and Application Thereof” (Shanghai Allist Pharmaceuticals Co., Ltd., priority 2021, published 2024).
